Test [1] addresses Vitamin K-dependent protein C (Homo sapiens) (UniProt P04070). Nature of the test: Inhibitory activity against the human activated protein C.
In test [2] the target is Plasminogen (Homo sapiens) (UniProt P00747). The test is described as follows: Inhibitory activity against the human plasmin.
The target in test [3] is Tissue-type plasminogen activator (Homo sapiens) (UniProt P00750). Nature of the test: Inhibitory activity against the human tissue plasminogen activator.
Test [4] deals with Prothrombin (Homo sapiens) (UniProt P00734). The test is described as follows: Inhibitory activity against the human alpha-thrombin.
Test [5] has as its target Urokinase-type plasminogen activator (Homo sapiens) (UniProt P00749). The test is described as follows: Inhibitory activity against the human urokinase.
In test [6] the target is Serine protease 1 (Homo sapiens) (UniProt P07477). The test is described as follows: Inhibitory activity against the human trypsin.
A short description of test [7]: Anticoagulant activity for the compound by determining the concentration required to double the activated partial thromboplastin time. Type of test: functional.
Test [8] is described as follows: Anticoagulant activity for the compound by determining the concentration required to double the prothrombin time. Type of test: functional.
Test [9] can be described thus: Anticoagulant activity for the compound by determining the concentration required to double the thrombin time. Type of test: functional.
The target of test [10] is Vitamin K-dependent protein C (Homo sapiens) (UniProt P04070). Nature of the test: Inhibitory activity against the activated human protein C.

A value given as a limit tells only on which side of the number the result lay.

Chain of Plasminogen (Homo sapiens) (P00747 97-580 limits assumed): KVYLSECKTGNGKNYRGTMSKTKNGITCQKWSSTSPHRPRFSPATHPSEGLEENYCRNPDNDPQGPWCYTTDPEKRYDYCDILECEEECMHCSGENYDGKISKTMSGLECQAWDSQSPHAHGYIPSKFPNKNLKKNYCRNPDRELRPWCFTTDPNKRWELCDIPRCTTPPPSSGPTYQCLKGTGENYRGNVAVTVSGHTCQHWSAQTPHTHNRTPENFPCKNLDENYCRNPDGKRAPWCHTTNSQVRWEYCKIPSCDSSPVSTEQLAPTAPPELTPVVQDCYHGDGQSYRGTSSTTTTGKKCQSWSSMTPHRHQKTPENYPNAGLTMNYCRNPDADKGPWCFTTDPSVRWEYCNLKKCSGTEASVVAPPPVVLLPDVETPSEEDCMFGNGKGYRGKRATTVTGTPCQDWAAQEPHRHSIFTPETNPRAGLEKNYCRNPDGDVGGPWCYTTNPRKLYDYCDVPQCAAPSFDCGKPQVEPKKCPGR
Chain of Plasminogen (Homo sapiens) (P00747 581-810 limits assumed): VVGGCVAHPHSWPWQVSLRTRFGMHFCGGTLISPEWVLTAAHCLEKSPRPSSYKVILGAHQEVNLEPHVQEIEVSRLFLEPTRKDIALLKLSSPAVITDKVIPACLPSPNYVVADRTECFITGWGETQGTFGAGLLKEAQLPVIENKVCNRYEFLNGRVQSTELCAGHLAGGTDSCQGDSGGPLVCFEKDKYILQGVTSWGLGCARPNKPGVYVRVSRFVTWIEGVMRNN
Chain of Vitamin K-dependent protein C (Homo sapiens) (P04070 43-197 limits assumed): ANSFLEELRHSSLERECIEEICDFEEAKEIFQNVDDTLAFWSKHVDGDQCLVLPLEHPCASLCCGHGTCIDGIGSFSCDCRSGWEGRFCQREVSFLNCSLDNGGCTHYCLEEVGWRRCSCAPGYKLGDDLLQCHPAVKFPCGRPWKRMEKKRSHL
Chain of Vitamin K-dependent protein C (Homo sapiens) (P04070 212-461 limits assumed): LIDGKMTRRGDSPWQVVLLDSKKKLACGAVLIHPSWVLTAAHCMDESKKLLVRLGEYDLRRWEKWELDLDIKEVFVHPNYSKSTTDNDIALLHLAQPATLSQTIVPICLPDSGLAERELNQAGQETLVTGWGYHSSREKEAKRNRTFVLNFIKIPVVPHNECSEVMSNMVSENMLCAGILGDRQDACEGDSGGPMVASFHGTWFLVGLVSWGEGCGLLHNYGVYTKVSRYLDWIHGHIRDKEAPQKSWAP
Chain of Tissue-type plasminogen activator (Homo sapiens) (P00750 36-562 limits assumed): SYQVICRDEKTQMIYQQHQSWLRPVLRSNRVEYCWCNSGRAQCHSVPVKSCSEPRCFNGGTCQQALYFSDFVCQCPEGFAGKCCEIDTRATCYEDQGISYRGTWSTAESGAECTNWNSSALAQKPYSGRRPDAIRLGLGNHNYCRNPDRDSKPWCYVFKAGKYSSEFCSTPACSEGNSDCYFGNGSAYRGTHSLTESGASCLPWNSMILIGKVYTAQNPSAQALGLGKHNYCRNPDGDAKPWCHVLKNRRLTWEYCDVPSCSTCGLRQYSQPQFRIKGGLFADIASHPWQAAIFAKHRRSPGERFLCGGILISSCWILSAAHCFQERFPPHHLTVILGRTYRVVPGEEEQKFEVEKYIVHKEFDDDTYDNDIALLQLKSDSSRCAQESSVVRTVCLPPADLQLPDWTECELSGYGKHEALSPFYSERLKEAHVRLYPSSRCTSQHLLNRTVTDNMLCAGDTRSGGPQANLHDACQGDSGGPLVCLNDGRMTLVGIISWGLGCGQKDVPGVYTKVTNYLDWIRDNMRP
Chain of Serine protease 1 (Homo sapiens) (P07477 whole entry): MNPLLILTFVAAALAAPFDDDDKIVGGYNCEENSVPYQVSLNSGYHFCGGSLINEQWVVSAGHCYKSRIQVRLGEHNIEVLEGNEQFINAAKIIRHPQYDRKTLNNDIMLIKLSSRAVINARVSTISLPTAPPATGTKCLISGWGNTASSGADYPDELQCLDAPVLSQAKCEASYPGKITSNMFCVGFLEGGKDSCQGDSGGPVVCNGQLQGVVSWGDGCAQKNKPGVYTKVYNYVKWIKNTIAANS

Consider `O=C(O)CN[C@H](CC1CCCCC1)C(=O)N1CCC[C@H]1C(=O)NCCCc1c[nH]cn1`, for which the K ass is 20000 l M-1 in test [1]; < 10000 l M-1 in [2]; < 10000 l M-1 in [3]; 1e+08 l M-1 in test [4]; < 10000 l M-1 in test [5]; 290000 l M-1 in test [6]. Moreover, the Concentration in test [7] amounted to 170 ng/mL; in test [8], 380 ng/mL; in test [9], 20 ng/mL.
In the case of `O=C(O)CN[C@H](CC1CCCCC1)C(=O)N1CCC[C@H]1C(=O)NC/C=C/c1c[nH]cn1`, the K ass in test [4] is 8.4e+07 l M-1.
In the case of `N[C@H](CC1CCCCC1)C(=O)N1[C@H](C(=O)NCCCc2c[nH]cn2)C[C@@H]2CCCC[C@@H]21`, the K ass in [1] was 10000 l M-1; in test [2], < 10000 l M-1; in test [3], < 10000 l M-1; in [4], 3.4e+07 l M-1; in test [5], < 10000 l M-1; in [6] it was 40000 l M-1. The Concentration in test [7] stood at 470 ng/mL; in test [8], 700 ng/mL; in test [9], 61 ng/mL.
On to `N[C@H](CC1CCCCC1)C(=O)N1[C@H](C(=O)NC/C=C/c2c[nH]cn2)C[C@@H]2CCCC[C@@H]21`, for which, in test [4], the K ass was 7e+06 l M-1.
Turning to `N[C@H](CC1CCCCC1)C(=O)N1CCC[C@H]1C(=O)NCCCCc1c[nH]cn1`, in test [4], the K ass was 1.3e+06 l M-1.
Turning to `N[C@H](CC1CCCCC1)C(=O)N1CCC[C@H]1C(=O)NCCc1c[nH]cn1`, the K ass in [4] was 4.4e+06 l M-1.
`NC(N)=NCCCCNC(=O)[C@@H]1CCCN1C(=O)[C@H](N)CC1CCCCC1`: the K ass in [10] was 10000 l M-1; in test [2], 10000 l M-1; in [3], 11000 l M-1; in test [4], 3e+07 l M-1; in [5], < 10000 l M-1; in test [6], 260000 M⁻¹. Moreover, the Concentration in test [7] is 490 ng/mL; in test [8], 770 ng/mL; in [9] it was 44 ng/mL.
On to `Cc1[nH]cnc1CCCNC(=O)[C@@H]1CCCN1C(=O)[C@H](N)CC1CCCCC1`, for which the K ass in test [4] was 2.3e+07 l M-1.
For `N[C@H](CC1CCCCC1)C(=O)N1CCC[C@H]1C(=O)NC/C=C/c1c[nH]cn1`, in test [4], the K ass is 1.6e+07 l M-1.
On to `N[C@H](CC1CCCCC1)C(=O)N1CCC[C@H]1C(=O)NCCCc1c[nH]cn1`, for which the K ass in test [1] is < 10000 l M-1; in test [2], < 10000 l M-1; in test [3] it was < 10000 l M-1; in test [4], 2e+07 l M-1; in test [5] it was < 10000 l M-1; in [6] it was 10000 l M-1. Also, the Concentration in test [7] turned out to be 660 ng/mL; in test [8], 1000 ng/mL; in [9], 74 ng/mL.
With `CN[C@H](Cc1ccccc1)C(=O)N1CCC[C@H]1C(=O)N[C@H](C=O)CCCNC(=N)N`, the K ass in test [10] is 300000 l M-1; in test [2], 1.5e+06 l M-1; in test [4], 6.7e+08 l M-1; in test [5], 40000 l M-1; in [6] it was 91 l M-1. In addition, the Concentration came to 930 ng/mL in test [7], 1000 ng/mL in test [8] and 41 ng/mL in test [9].

These data come from ChEMBL document CHEMBL1131990, “The design of potent, selective, non-covalent, peptide thrombin inhibitors utilizing imidazole as a S1 binding element” (Bioorg Med Chem Lett, 1999).
